How the values were obtained:
ALOMY = assay: greenhouse post-emergence herbicidal test; format: in vivo, Alopercurus myosuroides; conditions: post-emergence method, scale from 0 to 100
Source text: (§1) The seeds of the test plants were sown separately for each species. For the post-emergence treatment, the test plants were first grown to a height of 3 to 15 cm, depending on the plant habit, and only then treated with the active ingredients which had been suspended or emulsified in water. For this purpose, the test plants were either sown directly and grown in the same containers, or they were first grown separately as seedlings and transplanted into the test containers a few days prior to treatment. Depending on the species, the plants were kept at 10-25° C. or 20-35° C., respectively. The test period extended over 2 to 4 weeks. During this time, the plants were tended, and their response to the individual treatments was evaluated. Evaluation was carried out using a scale from 0 to 100. 100 means no emergence of the plants, or complete destruction of at least the aerial moieties, and 0 means no damage, or normal course of growth. […] The plants used in the greenhouse experiments were of the following species: [table]

APESV = assay: greenhouse pre-emergence herbicidal test; format: in vivo, Apera spica-venti; conditions: pre-emergence method, scale from 0 to 100
Source text: (§2) The seeds of the test plants were sown separately for each species. For the pre-emergence treatment, the active ingredients, which had been suspended or emulsified in water, were applied directly after sowing by means of finely distributing nozzles. The containers were irrigated gently to promote germination and growth and subsequently covered with transparent plastic hoods until the plants had rooted. This cover caused uniform germination of the test plants, unless this had been impaired by the active ingredients. Depending on the species, the plants were kept at 10-25° C. or 20-35° C., respectively. The test period extended over 2 to 4 weeks. During this time, the plants were tended, and their response to the individual treatments was evaluated. Evaluation was carried out using a scale from 0 to 100. 100 means no emergence of the plants, or complete destruction of at least the aerial moieties, and 0 means no damage, or normal course of growth. […] The plants used in the greenhouse experiments were of the following species: [table]

ECHCG [1] = assay: greenhouse pre-emergence herbicidal test; format: in vivo, Echinocloa crus-galli; conditions: pre-emergence method, scale from 0 to 100
Source text: as §2

AVEFA = assay: greenhouse post-emergence herbicidal test; format: in vivo, Avena fatua; conditions: post-emergence method, scale from 0 to 100
Source text: as §1

ECHCG [2] = assay: greenhouse post-emergence herbicidal test; format: in vivo, Echinocloa crus-galli; conditions: post-emergence method, scale from 0 to 100
Source text: as §1

Row | Compound | herbicidal activity against ALOMY (ALOMY; application rate 1000 g/ha) | herbicidal activity against APESV (APESV; application rate 1000 g/ha) | herbicidal activity against ECHCG (ECHCG [1]; application rate 1000 g/ha) | herbicidal activity against AVEFA (AVEFA; application rate 1000 g/ha) | herbicidal activity against APESV (APESV; application rate 500 g/ha) | herbicidal activity against AVEFA (AVEFA; application rate 500 g/ha) | other results
1 | COC(=O)c1nc(C2CC2)ncc1-c1c(Br)ccc(F)c1F [example 197] | very good (a very good herbicidal activity is given at values of at least 85) | very good (a very good herbicidal activity is given at values of at least 85) | very good (a very good herbicidal activity is given at values of at least 85) | very good (a very good herbicidal activity is given at values of at least 85) | – | – | –
2 | COC(=O)c1nc(C2CC2)ncc1-c1c(F)cc(Cl)cc1Cl [example 194] | – | – | – | – | good (A good herbicidal activity is given at values of at least 70) | very good (a very good herbicidal activity is given at values of at least 85) | herbicidal activity against ALOMY (ALOMY; application rate 500 g/ha): good (A good herbicidal activity is given at values of at least 70)
3 | N#Cc1cc(F)ccc1-c1cnc(C2CC2)nc1C(=O)O [example 157] | very good (a very good herbicidal activity is given at values of at least 85) | very good (a very good herbicidal activity is given at values of at least 85) | – | very good (a very good herbicidal activity is given at values of at least 85) | – | – | –
4 | COC(=O)c1nc(C2CC2)ncc1-c1c(Cl)cc(Cl)cc1Cl [example 209] | very good (a very good herbicidal activity is given at values of at least 85) | very good (a very good herbicidal activity is given at values of at least 85) | – | very good (a very good herbicidal activity is given at values of at least 85) | – | – | –
5 | O=C(O)c1nc(C2CC2)ncc1-c1c(Cl)cc(Cl)cc1Cl [example 149] | very good (a very good herbicidal activity is given at values of at least 85) | very good (a very good herbicidal activity is given at values of at least 85) | – | very good (a very good herbicidal activity is given at values of at least 85) | – | – | –
6 | COC(=O)c1nc(C2CC2)ncc1-c1ccc(F)cc1C#N [example 220] | – | – | – | – | very good (a very good herbicidal activity is given at values of at least 85) | very good (a very good herbicidal activity is given at values of at least 85) | herbicidal activity against ALOMY (ALOMY; application rate 500 g/ha): very good (a very good herbicidal activity is given at values of at least 85)
7 | CC(C)OC(=O)c1nc(C2CC2)ncc1-c1ccccc1Cl [example 252] | very good (a very good herbicidal activity is given at values of at least 85) | – | very good (a very good herbicidal activity is given at values of at least 85) | very good (a very good herbicidal activity is given at values of at least 85) | – | – | –
8 | CC(C)OC(=O)CSC(=O)c1nc(C2CC2)ncc1-c1ccccc1Cl [example 279] | – | – | – | – | very good (a very good herbicidal activity is given at values of at least 85) | very good (a very good herbicidal activity is given at values of at least 85) | herbicidal activity against ECHCG (ECHCG [1]; application rate 500 g/ha): very good (a very good herbicidal activity is given at values of at least 85)
9 | COc1ccc(CSC(=O)c2nc(C3CC3)ncc2-c2ccccc2Cl)cc1 [example 282] | – | – | – | – | very good (a very good herbicidal activity is given at values of at least 85) | very good (a very good herbicidal activity is given at values of at least 85) | –
10 | COC(=O)c1nc(C2CC2)ncc1-c1ccccc1C#N [example 217] | – | – | – | – | very good (a very good herbicidal activity is given at values of at least 85) | – | herbicidal activity against ALOMY (ALOMY; application rate 500 g/ha): good (A good herbicidal activity is given at values of at least 70); herbicidal activity against ECHCG (ECHCG [1]; application rate 500 g/ha): very good (a very good herbicidal activity is given at values of at least 85); herbicidal activity against ECHCG (ECHCG [2]; application rate 500 g/ha): very good (a very good herbicidal activity is given at values of at least 85)
11 | COC(=O)c1nc(C2CC2)ncc1-c1ccccc1SC(F)(F)F [example 321] | – | – | – | herbicidal activity | – | – | –
12 | Cc1ccc(C)c(-c2cnc(C3CC3)nc2C(=O)O)c1 [example 165] | – | – | – | – | very good (a very good herbicidal activity is given at values of at least 85) | very good (a very good herbicidal activity is given at values of at least 85) | herbicidal activity against ALOMY (ALOMY; application rate 500 g/ha): very good (a very good herbicidal activity is given at values of at least 85)
13 | COC(=O)c1nc(C2CC2)ncc1-c1c(Cl)cccc1OC [example 202] | very good (a very good herbicidal activity is given at values of at least 85) | good (A good herbicidal activity is given at values of at least 70) | very good (a very good herbicidal activity is given at values of at least 85) | – | – | – | herbicidal activity against ECHCG (ECHCG [2]; application rate 1000 g/ha): good (A good herbicidal activity is given at values of at least 70)
14 | COC(=O)c1nc(C2CC2)ncc1-c1cc(F)ccc1C#N [example 218] | – | – | – | – | very good (a very good herbicidal activity is given at values of at least 85) | very good (a very good herbicidal activity is given at values of at least 85) | herbicidal activity against ECHCG (ECHCG [1]; application rate 500 g/ha): very good (a very good herbicidal activity is given at values of at least 85); herbicidal activity against ECHCG (ECHCG [2]; application rate 500 g/ha): very good (a very good herbicidal activity is given at values of at least 85)
15 | COC(=O)c1nc(C2CC2)ncc1-c1ccccc1C(F)(F)F [example 239] | – | very good (a very good herbicidal activity is given at values of at least 85) | very good (a very good herbicidal activity is given at values of at least 85) | very good (a very good herbicidal activity is given at values of at least 85) | – | – | –
16 | O=C(OC1CC1)c1nc(C2CC2)ncc1-c1ccccc1Cl [example 262] | – | – | – | – | very good (a very good herbicidal activity is given at values of at least 85) | good (A good herbicidal activity is given at values of at least 70) | herbicidal activity against ECHCG (ECHCG [1]; application rate 500 g/ha): very good (a very good herbicidal activity is given at values of at least 85)
17 | COC(=O)c1nc(C(F)(F)F)ncc1-c1ccccc1Cl [example 316] | – | good (A good herbicidal activity is given at values of at least 70) | good (A good herbicidal activity is given at values of at least 70) | good (A good herbicidal activity is given at values of at least 70) | – | – | –
18 | COC(=O)COC(=O)c1nc(C2CC2)ncc1-c1ccccc1Cl [example 261] | very good (a very good herbicidal activity is given at values of at least 85) | very good (a very good herbicidal activity is given at values of at least 85) | very good (a very good herbicidal activity is given at values of at least 85) | – | – | – | herbicidal activity against ECHCG (ECHCG [2]; application rate 1000 g/ha): very good (a very good herbicidal activity is given at values of at least 85)
19 | COC(=O)c1nc(C2CC2)ncc1-c1ccc(C)cc1C [example 231] | good (A good herbicidal activity is given at values of at least 70) | very good (a very good herbicidal activity is given at values of at least 85) | very good (a very good herbicidal activity is given at values of at least 85) | – | – | – | herbicidal activity against ECHCG (ECHCG [2]; application rate 1000 g/ha): good (A good herbicidal activity is given at values of at least 70)
20 | CCSC(=O)c1nc(C2CC2)ncc1-c1ccccc1Cl [example 291] | – | – | – | – | very good (a very good herbicidal activity is given at values of at least 85) | very good (a very good herbicidal activity is given at values of at least 85) | herbicidal activity against ECHCG (ECHCG [1]; application rate 500 g/ha): very good (a very good herbicidal activity is given at values of at least 85); herbicidal activity against ECHCG (ECHCG [2]; application rate 500 g/ha): very good (a very good herbicidal activity is given at values of at least 85)
21 | COC(=O)c1nc(C2CC2)ncc1-c1cc(OC)ccc1C [example 229] | – | – | – | – | very good (a very good herbicidal activity is given at values of at least 85) | – | herbicidal activity against ALOMY (ALOMY; application rate 500 g/ha): good (A good herbicidal activity is given at values of at least 70); herbicidal activity against ECHCG (ECHCG [1]; application rate 500 g/ha): very good (a very good herbicidal activity is given at values of at least 85); herbicidal activity against ECHCG (ECHCG [2]; application rate 500 g/ha): very good (a very good herbicidal activity is given at values of at least 85)
